Calls of active or inactive are those of the source.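 How the source made its calls: active means plate Z score at or below -3, or inhibition of at least 30% at 20 µM; inactive means the rest.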
Assay: compounds lowering EGFP fluorescence in F442A cells, dose response, counter-screen for p/CIP destabilizer project (AID 2005);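 further: cells express EGFP alone from a CMV promoter as a counter screen for p/CIP-EGFP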
Conditions: F442A EGFP cells, EGFP fluorescence, 16 h, stronger effect = higher value

In the case of `Cc1cc(NC(=O)CSc2ccc3nnc(-c4cccs4)n3n2)no1`, the inhibition (EGFP decrease, at 10 µM) is reported as 10.8% and the inhibition (at 20 µM) is reported as 15.9% (inactive).

With `CC(Nc1cc(N2CCN(S(=O)(=O)N(C)C)CC2)ccc1[N+](=O)[O-])c1ccccc1` (centres undefined) the inhibition (EGFP decrease, at 10 µM) was 7.3% and the inhibition (at 20 µM) was 23.9% (inactive).

With `O=S(=O)(NCC1CCCN(Cc2ccccc2)C1)c1cccc2cccnc12` (centres undefined) the inhibition (EGFP decrease, at 10 µM) was 21.3% and the inhibition (at 20 µM) was 19.6% (inactive).

With `Cc1ccc(NC(=O)C(NS(=O)(=O)c2cccc3nsnc23)C(C)C)nc1` (centres undefined) the inhibition (EGFP decrease, at 10 µM) was 34.6% and the inhibition (at 20 µM) was 21.7% (inactive).

In the case of `C/C(=C/C=C/[C@@H](C)C(=O)O)[C@H]1CN[C@H](C(=O)O)[C@H]1CC(=O)O`, the inhibition (EGFP decrease, at 10 µM) is reported as -8.3% and the inhibition (at 20 µM) is reported as 10.3% (inactive).

For `CC(OC(=O)C1CC1)C(=O)Nc1ccc([N+](=O)[O-])cc1Cl` (centres undefined), the inhibition (EGFP decrease, at 10 µM) was 14.2% and the inhibition (at 20 µM) was 3.9% (inactive).

In the case of `CCC1CCCCN1C(=O)NC(=O)c1ccccc1` (centres undefined), the inhibition (EGFP decrease, at 10 µM) is reported as 14.3% and the inhibition (at 20 µM) is reported as 5.4% (inactive).

For `CC(=O)Nc1ccc2c(c1)nc(CCNC(=O)c1ccco1)n2C`, the inhibition (EGFP decrease, at 10 µM) was 1.2% and the inhibition (at 20 µM) was 13% (inactive).

In the case of `Cc1ccc(NC2=NC3(CCCCC3)N=C(N)N2)c(C)c1`, the inhibition (EGFP decrease, at 10 µM) is reported as 32.9% and the inhibition (at 20 µM) is reported as 41.8%.

For `CC(=O)CC(=O)NC(=NC1CCCCC1)Nc1nc(C)cc(C)n1`, the inhibition (EGFP decrease, at 10 µM) was 14.7% and the inhibition (at 20 µM) was 5.7% (inactive).

In the case of `Cc1nc(SCC(=O)Nc2cc(C)on2)c2c(=O)n(C)c(=O)n(C)c2n1`, the inhibition (EGFP decrease, at 10 µM) is reported as 10% and the inhibition (at 20 µM) is reported as 6.6% (inactive).

In the case of `CCC(C(=O)NC1CCCCCC1)n1nc(C)n2c(cc3occc32)c1=O` (centres undefined), the inhibition (EGFP decrease, at 10 µM) is reported as 2.6% and the inhibition (at 20 µM) is reported as 5.5% (inactive).

With `Cc1nc2ccccc2c(=O)n1-c1ccc(Cl)c(Cl)c1` the inhibition (EGFP decrease, at 10 µM) was 12.7% and the inhibition (at 20 µM) was 12.7% (inactive).

With `O=C(O)c1ccc(NC2=C/C(=N/S(=O)(=O)c3ccccc3)c3ccccc3C2=O)cc1` the inhibition (EGFP decrease, at 10 µM) was 38.1% and the inhibition (at 20 µM) was 41.2%.

For `CC(Oc1ccc(F)cc1)C(=O)/C=C\N(C)C` (centres undefined), the inhibition (EGFP decrease, at 10 µM) was 8.4% and the inhibition (at 20 µM) was 0% (inactive).

Compound `Cc1cc(C)n2nc(SCC(=O)c3ccccc3)nc2n1` has an inhibition (EGFP decrease, at 10 µM) of 23.7% and an inhibition (at 20 µM) of 31%.

With `CC(C(=O)NC1=NCCS1)N1C(=O)C2CC=CCC2C1=O` (centres undefined) the inhibition (EGFP decrease, at 10 µM) was 20.2% and the inhibition (at 20 µM) was 27.7% (inactive).

`Cc1ccc(-c2nc(-c3cccnc3)no2)c(C)c1` showed an inhibition (EGFP decrease, at 10 µM) of 18.1% and an inhibition (at 20 µM) of 31.1%.

For `Cc1ccc(S(=O)(=O)Oc2ccc(/C=N/NC(=O)c3nn(C)cc3Cl)cc2)cc1`, the inhibition (EGFP decrease, at 10 µM) was 17.3% and the inhibition (at 20 µM) was 17.2% (inactive).

Work on `CC(C)(C)c1cc(Cc2ccccc2)[nH]n1` yielded an inhibition (EGFP decrease, at 10 µM) of -3.7% and an inhibition (at 20 µM) of 35.1%.

With `CC1CCC(NCc2ccco2)CC1` (centres undefined) the inhibition (EGFP decrease, at 10 µM) was -0.9% and the inhibition (at 20 µM) was 18.9% (inactive).

With `Cc1cc(C)n(CC(O)COc2ccc(C(C)(C)C)cc2)n1` (centres undefined) the inhibition (EGFP decrease, at 10 µM) was -4.8% and the inhibition (at 20 µM) was 7.7% (inactive).

In the case of `CC(=O)N1c2c(cc(Br)cc2S(=O)(=O)NCc2ccccc2)CC1C` (centres undefined), the inhibition (EGFP decrease, at 10 µM) is reported as 26.4% and the inhibition (at 20 µM) is reported as 20.8% (inactive).

With `NC(=O)COC(=O)CSc1cccc2cccc(Cl)c12` the inhibition (EGFP decrease, at 10 µM) was 24% and the inhibition (at 20 µM) was 10.6% (inactive).

With `Cc1ccc(S(=O)(=O)N(C)c2ccc(C(=O)NCc3cccnc3)cc2)cc1` the inhibition (EGFP decrease, at 10 µM) was -13.7% and the inhibition (at 20 µM) was -8.4% (inactive).

With `O=c1c(Br)c(Br)cnn1-c1ccccc1` the inhibition (EGFP decrease, at 10 µM) was 14.6% and the inhibition (at 20 µM) was 29.7% (inactive).

With `O=C(NCc1ccc(Cl)cc1)C1CCN(S(=O)(=O)c2cccs2)CC1` the inhibition (EGFP decrease, at 10 µM) was 6% and the inhibition (at 20 µM) was 6.7% (inactive).

For `COC(=O)c1ccc(NC(=O)CCCCCn2nnc3ccccc3c2=O)cc1`, the inhibition (EGFP decrease, at 10 µM) was 5.4% and the inhibition (at 20 µM) was -4% (inactive).

For `COCCN(CC(=O)NC1CCCCC1)C(=O)CSc1nc2ccccc2o1`, the inhibition (EGFP decrease, at 10 µM) was 7.4% and the inhibition (at 20 µM) was 28.7% (inactive).

With `CNc1cc(C(F)(F)F)nc(-c2ccccn2)n1` the inhibition (EGFP decrease, at 10 µM) was -1.6% and the inhibition (at 20 µM) was 22.4% (inactive).

In the case of `O=C(CN(CCc1ccccc1)C(=O)CNS(=O)(=O)c1ccccc1)NCC1CCCO1` (centres undefined), the inhibition (EGFP decrease, at 10 µM) is reported as 25.6% and the inhibition (at 20 µM) is reported as 23.8% (inactive).

For `Cc1ccc(/C=C/C(=O)c2ccc(N3CCOCC3)cc2)s1`, the inhibition (EGFP decrease, at 10 µM) was 8.3% and the inhibition (at 20 µM) was -1.4% (inactive).

Source: PubChem BioAssay AID2005 (Sanford-Burnham Center for Chemical Genomics, 2009)
